{"source": "patent US20150031872A1", "about": "“METHOD FOR SCREENING ANTICANCER DRUGS, AND ANTICANCER DRUG THAT INDUCES CELL DEATH AND USES SUBSTANCE THAT INCREASES GRANZYME M ACTIVITY AS ACTIVE INGREDIENT” (LSIP, LLC, priority 2012, published 2015)", "key": {"HL60 cells [1]": {"system": "HL60 cells", "test": "Viable cell count by tryptan blue method", "format": "cell-based, human", "conditions": "inhibitor alone 0.75 mg/ml, 14 hours", "protocol": "(§1) Ac-KVPL-CMK, which is an inhibitor specific to granzyme M, was added to the culture medium (5 μM AraC) in an amount making a final concentration of 0.75 mg/ml, and then pre-incubated. To 48 well plates, 5×10^5 of each cell (U937 cells and HL60 cells) were seeded, and culturing was initiated with 200 μl of culture medium per well. Fourteen hours after culturing initiation, the number of viable cells was measured by the tryptan blue method (mixing a cell suspension and tryptan blue solution in 1:1, placing in a hemocytometer, and counting the number of cells using an optical microscope). It should be noted that Ac-KVPL-CMK was synthesized based on the tertiary structure of granzyme M (L. Wu et. al., Structural basis for proteolytic specificity of the human apoptosis-inducing granzyme M, J. Immunol., 2009; 183: 421-429)."}, "U937 cells [2]": {"system": "U937 cells", "test": "Viable cell count by tryptan blue method", "format": "cell-based, human", "conditions": "inhibitor alone 0.75 mg/ml, 14 hours", "protocol": "as §1, with “Ac-KVPL-CMK, which is an inhibitor specific to granzyme M, was added to the culture medium (5 μM AraC) in an amount making a final concentration of 0.75 mg/ml, and then pre-incubated.” left out"}, "Colo201": {"system": "Colo201", "test": "Cell growth / viability, Cell Counting Kit 8 (WST-8)", "format": "cell-based, human", "conditions": "AraC 1, 5, 10 and 50 μm, 24 hours, FIG. 2A", "protocol": "(§2) Using U937 cells and HL60 cells, which are human leukemia cells, and Colo201, which are human colon cancer cells (all purchased from cell bank), 3×10^3 of each cell were seeded in 96 well plates, and then cultured with 100 μl of RPMI cell medium (containing 10% fetal bovine serum (FBS), 2 mM L-glutamine, 100 units/ml penicillin, 100 μg/ml streptomycin, 250 ng/ml amphoterin B) per each well. At this time, AraC (cylocide) being used in the treatment of acute myelocytic leukemia by conventional pathology was added to the culture medium at the respective concentrations of 1, 5, 10 and 50 μm, and cultured under the conditions of 37° C. and 5% CO2 for 24 hours. Subsequently, 10 μl of WST-8 solution was placed per 1 well, and cultured at 37° C. for 4 hours.\n(§3) The growth of cells was measured using a Cell Counting Kit 8 (Dojindo). This method is a measurement method establishing the dehydrogenase activity in viable cells as an index, and performs measurement of viable cell count based on WST-8 (2-(2-methoxy-4-nitrophenyl)-3-(4-nitrophenyl)-5-(2,4-disulfophenyl)-2H-tetrazolium, monosodium salt), which is a tetrazolium salt, being reduced to form formazan. More specifically, using a spectrophotometer Multiscan JX (Thermo Labsystems, Waltham, Mass.), the absorbance at 450 nm was measured, and the absorbance at 690 nm was used as the reference. The vertical axis in the graph of FIG. 2A represents the extent of cell viability by relative value."}, "HL60 cells [3]": {"system": "HL60 cells", "test": "Cell growth / viability, Cell Counting Kit 8 (WST-8)", "format": "cell-based, human", "conditions": "AraC 1, 5, 10 and 50 μm, 24 hours, FIG. 2A, p<0.01", "protocol": "as §2, §3"}, "U937 cells [4]": {"system": "U937 cells", "test": "Cell growth / viability, Cell Counting Kit 8 (WST-8)", "format": "cell-based, human", "conditions": "AraC 1, 5, 10 and 50 μm, 24 hours, FIG. 2A, p<0.01", "protocol": "as §2, §3"}, "[5]": {"system": "PARP and caspase-3 in U937 cells", "test": "Expression of apoptosis associated proteins after AraC", "format": "cell-based, human", "conditions": "5 μM AraC, 0 h, 3 hours, 6 hours, FIG. 2C", "protocol": "Immediately after culturing start (0 h) under the administration of 5 μM of AraC, after 3 hours and after 6 hours, the expression of apoptosis associated proteins of U937 cells was measured."}, "[6]": {"system": "nucleophosmin (NPM) in U937", "test": "Western blot of nucleophosmin (NPM) fragments", "format": "cell-based, human", "source_text": "(§4) By the same method as FIG. 2C, protein groups extracted from the respective cells of U937, HL60 and Colo201 were molecular weight fractionated by way of electrophoresis of a conventional method, and the behavior of nucleophosmin (NPM), which is a cell survival factor (anti-apoptotic factor), was further investigated by the western blot method of a conventional method. It should be noted that monoclonal anti-GB23 (nucleophosmin/NPM) (catalog number B0556), which is an anti-NPM antibody, was purchased from Sigma-Aldrich (Saint Louis, Mo., USA).\nNPM fragments were recovered by the immunoprecipitation method, and the N-terminal amino acids at the cleavage site of NPM were analyzed to carry out identification of the protease participating in the cleavage of NPM. It should be noted that “LC” in FIG. 3B is a light chain of the antibody used in immunoprecipitation."}, "[7]": {"system": "nucleophosmin (NPM) in Colo201", "test": "Western blot of nucleophosmin (NPM) fragments", "format": "cell-based, human", "conditions": "after AraC administration, FIG. 3A", "source_text": "as §4"}, "[8]": {"system": "nucleophosmin (NPM) in HL60", "test": "Western blot of nucleophosmin (NPM) fragments", "format": "cell-based, human", "conditions": "after AraC administration, FIG. 3A", "source_text": "as §4"}, "granzyme M in U937 cells [9]": {"system": "granzyme M in U937 cells", "test": "Western blot, expression of granzyme M", "format": "cell-based, human", "conditions": "5 μM AraC, 0 h, 1, 3 and 5 hours, FIG. 4", "protocol": "(§5) Using U937 cells, Colo201 cells (negative control) and KHYG-1 cells (positive control), which are human NK cells, 5 μM of AraC was added to the culture medium, and culturing was carried out. Immediately after culturing initiation (0 h), after 1 hour, after 3 hours and after 5 hours, cells were recovered from the cell medium, and protein groups were extracted from the cells. The amount of protein group was measured, and a certain amount of protein group was molecular weight fractionated by way of electrophoresis of a conventional method.\nBy way of western blot of a conventional method, the expression of granzyme M was detected. […] The expression of granzyme M in U937 cells, which are cancer cells, is a novel discovery that had not been known conventionally. […] It should be noted that GZMM Antibody (catalog number: AP6792c) by Abgent was used as the granzyme M antibody."}, "perforin in U937 cells": {"system": "perforin in U937 cells", "test": "Western blot, expression of perforin", "format": "cell-based, human", "conditions": "5 μM AraC, FIG. 5", "description": "Using U937 cells, Colo201 cells (negative control) and KHYG-1 cells (positive control), which are human NK cells, 5 μM of AraC was added to the culture medium, and culturing was carried out. Immediately after culturing initiation (0 h), after 1 hour, after 3 hours and after 5 hours, cells were recovered from the cell medium, and protein groups were extracted from the cells. The amount of protein group was measured, and a certain amount of protein group was molecular weight fractionated by way of electrophoresis of a conventional method. The expression of perforin was detected by way of western blot of a conventional method. […] It should be noted that Mouse Anti-Human Perforin, Monoclonal Antibody (catalog number: 3465-6-250) by Mabtech was used as the perforin antibody."}, "granzyme M in HL60 cells [10]": {"system": "granzyme M in HL60 cells", "test": "Western blot, expression of granzyme M", "format": "cell-based, human", "conditions": "5 μM AraC, FIG. 6", "protocol": "as §5\n(§6) Except for the point of using HL60 cells and KHYG-1 cells (positive control section), the expression of granzyme M and perforin was examined at the same conditions as Test Example 3."}, "perforin in HL60 cells": {"system": "perforin in HL60 cells", "test": "Western blot, expression of perforin", "format": "cell-based, human", "conditions": "5 μM AraC, FIG. 6", "protocol": "as §5, §6"}, "granzyme M in U937 cells [11]": {"target": "T1, granzyme M in U937 cells (Homo sapiens, UniProt P51124)", "T1 construct": "endogenous in cells; host or cells: U937, HL60", "T1 sequence (P51124 26-257)": "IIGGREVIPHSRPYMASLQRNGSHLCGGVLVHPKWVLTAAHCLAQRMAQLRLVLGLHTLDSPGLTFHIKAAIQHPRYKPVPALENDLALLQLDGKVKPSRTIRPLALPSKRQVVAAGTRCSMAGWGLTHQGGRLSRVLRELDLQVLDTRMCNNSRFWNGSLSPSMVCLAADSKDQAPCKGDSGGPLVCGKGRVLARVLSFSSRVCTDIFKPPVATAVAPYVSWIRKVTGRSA", "test": "Granzyme M activity in extracted protein group (substrate, OD 405 nm)", "format": "cell-based", "conditions": "5 μM AraC, 0 h, 3, 5 and 7 hours, FIG. 7", "protocol": "(§7) At the same conditions (5 μM AraC) as Test Example 1, U937 cells, HL60 cells and KHYG-1 cells (positive control section) were cultured, cells were recovered from the culture medium immediately after culturing initiation (0 h), after 3 hours, after 5 hours and after 7 hours, and the protein groups were extracted from the cells.\n(§8) To a measurement buffer (100 mM HEPES, 50 mM CaCl2, pH 7.4), 30 μg of protein group was introduced, and after adding substrate in an amount for a concentration of 200 μM, was incubated at 37° C. for 1 hour, and the absorbance at OD 405 nm was measured. It should be noted that the substrate was one synthesized by referencing Sami Mahrus, Walter Kisiel, and Charles S. Craik, Granzyme M is a regulatory protease that inactivates proteinase inhibitor 9, an endogenous inhibitor of granzyme B, J. Biol. Chem., 279, pp. 54275-54282, 2004. The vertical axis in FIG. 7 is an activity relative value for granzyme M calculated based on the absorbance.\nNext, using protein groups arrived at by administering serine protease inhibitor (50 μM TPCK) to the culture medium, culturing U937 cells under the same conditions for 7 hours, and recovering, the absorbance was measured in the same way as above. The vertical axis in FIG. 3 is the activity relative value for granzyme M calculated based on the absorbance."}, "granzyme M in HL60 cells [12]": {"target": "T2, granzyme M in HL60 cells (Homo sapiens, UniProt P51124)", "T2 construct": "endogenous in cells; host or cells: U937, HL60", "T2 sequence (P51124 26-257)": "T1 sequence (P51124 26-257)", "test": "Granzyme M activity in extracted protein group (substrate, OD 405 nm)", "format": "cell-based", "conditions": "5 μM AraC, 0 h, 3, 5 and 7 hours, FIG. 7", "protocol": "as §7, §8"}, "granzyme M in Hela cells": {"target": "T3, granzyme M in Hela cells (Homo sapiens, UniProt P51124)", "T3 construct": "endogenous in cells; host or cells: Hela", "T3 sequence (P51124 26-257)": "T1 sequence (P51124 26-257)", "test": "Granzyme M activity in extracted protein group (substrate, OD 405 nm)", "format": "cell-based", "conditions": "CDDP 50 μM, 24 hours culture, incubation 10 min, 8 hr (P<0.05), 21 hr (P<0.01) vs. control, FIG. 11", "protocol": "as §8\nUsing Hela cells, which are human solid carcinoma cells, the action causing granzyme M activity of CDDP 50 μM conventionally used as a curative drug for solid carcinoma was investigated by culturing Hela cells for 24 hours at the same conditions as Test Example 5. The vertical axis in FIG. 11 is the activity relative value for granzyme M calculated based on the absorbance, and on the horizontal axis are test groups having incubation times of “10 min”, “8 hr” (8 hours) and “21 hr” (21 hours), in which “control” is the substrate without CDDP, and “CDDP” is the substrate and CDDP addition."}}, "note": "Peptide text beside a SMILES is read from it. * marks the point of attachment. CH2Cl = ClC*", "data": [{"smiles": "CC(=O)N[C@@H](CCCCN)C(=O)N[C@H](C(=O)N1CCC[C@H]1C(=O)N[C@@H](CC(C)C)C(=O)CCl)C(C)C", "note": "[granzyme M-specific inhibitor, Ac-KVPL-CMK] (Ac-KVPL-CH2Cl)", "values": [{"measurement": "viable cell count, sole administration vs. control group", "setting": "HL60 cells [1]", "result": "significant difference in viable cell count was not confirmed"}, {"measurement": "viable cell count, sole administration vs. control group", "setting": "U937 cells [2]", "result": "significant difference in viable cell count was not confirmed"}]}, {"smiles": "Nc1ccn([C@@H]2O[C@H](CO)[C@@H](O)[C@@H]2O)c(=O)n1", "note": "[AraC]", "values": [{"measurement": "cell death (cell viability, relative value)", "setting": "Colo201", "result": "not induced"}, {"measurement": "cell death (cell viability, relative value)", "setting": "HL60 cells [3]", "result": "concentration dependently induced"}, {"measurement": "cell death (cell viability, relative value)", "setting": "U937 cells [4]", "result": "concentration dependently induced"}, {"measurement": "PARP decomposition", "setting": "[5]", "result": "decomposed along with the elapse of time"}, {"measurement": "caspase-3 decomposition", "setting": "[5]", "result": "decomposed along with the elapse of time"}, {"measurement": "cleavage site of NPM fragment (N-terminal amino acid sequence AAED)", "setting": "[6]; NPM fragments recovered by immunoprecipitation after AraC administration, FIG. 3B", "result": "cleaved by Leu-158 of NPM"}, {"measurement": "fragments of NPM", "setting": "[6]; U937, after AraC administration, FIG. 3A", "result": "detected along with the elapse of time"}, {"measurement": "fragments of NPM", "setting": "[7]", "result": "not detected"}, {"measurement": "fragments of NPM", "setting": "[8]", "result": "detected along with the elapse of time"}, {"measurement": "expression level of granzyme M", "setting": "granzyme M in U937 cells [9]", "result": "unrelated to the elapse of AraC administration time"}, {"measurement": "expression of perforin", "setting": "perforin in U937 cells", "result": "not induced"}, {"measurement": "expression level of granzyme M", "setting": "granzyme M in HL60 cells [10]", "result": "tendency of the expression level being exacerbated depending on the time elapsed"}, {"measurement": "expression of perforin", "setting": "perforin in HL60 cells", "result": "not recognized"}, {"measurement": "activity of granzyme M (relative value)", "setting": "granzyme M in U937 cells [11]", "result": "increases along with the elapse of time"}, {"measurement": "activity of granzyme M (relative value)", "setting": "granzyme M in HL60 cells [12]", "result": "increases along with the elapse of time"}]}, {"smiles": "[NH2][Pt]([NH2])([Cl])[Cl]", "note": "[CDDP, cisplatin]", "values": [{"measurement": "activity of granzyme M (relative value)", "setting": "granzyme M in Hela cells", "result": "increased with the elapse of time"}]}]}
